Literature values, collected in patent US20230330223A1, “TREATMENT OF HER2 NEGATIVE, MAMMAPRINT HIGH RISK 2 BREAST CANCER” (Agendia N.V., priority 2020, published 2023).

Test system: locally advanced breast cancer (Stage II/III)
Settings: added to standard neoadjuvant chemotherapy; ERBB2-negative (HER2-negative) breast cancer

Substance: pembrolizumab: immune check point inhibitor, PD1/PDL1 inhibitor antibody (Merck)
- estimated pCR rates, change versus standard chemotherapy: more than doubled
